Measured values reported in US12410171B2, “Tropomyosin receptor kinase (TRK) degradation compounds and methods of use” (Cullgen (Shanghai), Inc., priority 2020, dated 2025).
Where two headings read alike, the source gives them in different places.

Key:
KM12 cells = assay: KM12 cell viability (CellTiter-Glo); format: cell-based; conditions: for IC50: Homo sapiens
Procedure, shortened: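 Three-day exposure of KM12 cells (5000/well, RPMI 1640 with 10% FBS, 37 °C, 5% CO2) to compound dilution series, 3-fold over 8 or 11 points (top 1000 nM in the 8-point format) or 2-fold over 12. CellTiter-Glo readout, with IC50 fitted by nonlinear least-squares regression.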

TPM3-TRKA fusion protein = biological target: T1, TPM3-TRKA fusion protein (Homo sapiens, UniProt P04629); assay: TPM3-TRKA fusion protein levels in KM12 cells (Western blot); format: cell-based; conditions: for percent degradation of TPM3-TRKA protein at 0.01 µM: read-out: Degradation (at 10 nM)
T1 construct: The resulted chimeric proteins always retain the kinase domain of TRK proteins; TPM3 (fusion partner, N-terminal part of tropomyosin alpha-3, P06753); endogenous in cells; host or cells: KM12 colon cancer cells; the other entry of the earlier key: TPM3 (P06753, Tropomyosin alpha-3 chain)
T1 sequence (P04629 with tags, fused parts or gaps): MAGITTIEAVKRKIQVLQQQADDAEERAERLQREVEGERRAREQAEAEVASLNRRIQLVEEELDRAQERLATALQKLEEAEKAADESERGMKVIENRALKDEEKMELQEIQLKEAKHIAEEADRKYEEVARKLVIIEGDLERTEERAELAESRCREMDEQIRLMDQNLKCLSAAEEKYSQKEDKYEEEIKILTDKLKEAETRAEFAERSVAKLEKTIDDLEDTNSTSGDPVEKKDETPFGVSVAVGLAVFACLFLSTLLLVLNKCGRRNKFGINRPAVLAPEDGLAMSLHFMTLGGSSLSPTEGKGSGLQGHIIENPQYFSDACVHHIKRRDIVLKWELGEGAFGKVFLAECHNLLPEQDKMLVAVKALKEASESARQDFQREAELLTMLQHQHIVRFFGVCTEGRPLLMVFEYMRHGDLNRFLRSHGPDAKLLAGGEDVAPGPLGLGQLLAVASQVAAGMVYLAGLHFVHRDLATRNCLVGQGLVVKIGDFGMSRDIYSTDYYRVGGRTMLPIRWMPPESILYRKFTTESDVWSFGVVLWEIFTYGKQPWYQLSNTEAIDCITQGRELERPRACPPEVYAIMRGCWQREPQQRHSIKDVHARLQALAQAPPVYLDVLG
Procedure, shortened: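 TPM3-TRKA levels were assessed by Western blot with chemiluminescent detection and band densitometry, after SDS-PAGE of BCA-normalized RIPA lysates. Before lysis, KM12 cells received DMSO, compounds or matched control compounds at concentrations including 0.1, 1, 10 and 100 nM and 0.4–30 nM. Exposures lasted 4 h, 8–16 h or 16 h.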

[1] = 500 nM, 12-point 2-fold serial dilution, 3 days (FIG. 4A)
[2] = 16 h, TPM3-TRKA degradation in KM12 cells at 10 nM compound, category of percentage degradation
[3] = 72 h, KM12 cell viability, 11-point 3-fold serial dilution, 3 days, CellTiter-Glo, read-out: IC50
[4] = 16 h, TPM3-TRKA degradation in KM12 cells at 10 nM

Row | percent degradation of TPM3-TRKA protein at 0.01 µM (TPM3-TRKA fusion protein; [4]) [%] | SMILES | IC50 (KM12 cells; [3]) [nM] | other results
1 | > 80 | O=C1CCC(N2C(=O)c3ccc(NCCCC(=O)N4CCC(Nc5cccc(C(=O)Nc6cnn7ccc(N8CCC[C@@H]8c8cc(F)ccc8F)nc67)n5)CC4)cc3C2=O)C(=O)N1 (stereo partly drawn) [CPD-470, N-(5-((R)-2-(2,5-difluorophenyl)pyrrolidin-1-yl)pyrazolo[1,5-a]pyrimidin-3-yl)-6-((1-(4-((2-(2,6-dioxopiperidin-3-yl)-1,3-dioxoisoindolin-5-yl)amino)butanoyl)piperidin-4-yl)amino)picolinamide] | 21 | 
2 | > 80 | O=C1CCC(N2C(=O)c3ccc(NCCCCCC(=O)N4CCC(Nc5cccc(C(=O)Nc6cnn7ccc(N8CCC[C@@H]8c8cc(F)ccc8F)nc67)n5)CC4)cc3C2=O)C(=O)N1 (stereo partly drawn) [CPD-471, N-(5-((R)-2-(2,5-difluorophenyl)pyrrolidin-1-yl)pyrazolo[1,5-a]pyrimidin-3-yl)-6-((1-(6-((2-(2,6-dioxopiperidin-3-yl)-1,3-dioxoisoindolin-5-yl)amino)hexanoyl)piperidin-4-yl)amino)picolinamide] | 19 | 
3 | > 80 | O=C1CCC(N2C(=O)c3ccc(NCCOCCC(=O)N4CCC(Nc5cccc(C(=O)Nc6cnn7ccc(N8CCC[C@@H]8c8cc(F)ccc8F)nc67)n5)CC4)cc3C2=O)C(=O)N1 (stereo partly drawn) [CPD-473, N-(5-((R)-2-(2,5-difluorophenyl)pyrrolidin-1-yl)pyrazolo[1,5-a]pyrimidin-3-yl)-6-((1-(3-(2-((2-(2,6-dioxopiperidin-3-yl)-1,3-dioxoisoindolin-5-yl)amino)ethoxy)propanoyl)piperidin-4-yl)amino)picolinamide] | 24 | 
4 | > 80 | O=C1CCC(N2C(=O)c3ccc(NCCOCCOCCC(=O)N4CCC(Nc5cccc(C(=O)Nc6cnn7ccc(N8CCC[C@@H]8c8cc(F)ccc8F)nc67)n5)CC4)cc3C2=O)C(=O)N1 (stereo partly drawn) [CPD-474, N-(5-((R)-2-(2,5-difluorophenyl)pyrrolidin-1-yl)pyrazolo[1,5-a]pyrimidin-3-yl)-6-((1-(3-(2-(2-((2-(2,6-dioxopiperidin-3-yl)-1,3-dioxoisoindolin-5-yl)amino)ethoxy)ethoxy)propanoyl)piperidin-4-yl)amino)picolinamide] | 18 | 
5 | > 80 | O=C1CCC(N2C(=O)c3ccc(NCCOCCOCCOCCC(=O)N4CCC(Nc5cccc(C(=O)Nc6cnn7ccc(N8CCC[C@@H]8c8cc(F)ccc8F)nc67)n5)CC4)cc3C2=O)C(=O)N1 (stereo partly drawn) [CPD-475, N-(5-((R)-2-(2,5-difluorophenyl)pyrrolidin-1-yl)pyrazolo[1,5-a]pyrimidin-3-yl)-6-((1-(3-(2-(2-(2-((2-(2,6-dioxopiperidin-3-yl)-1,3-dioxoisoindolin-5-yl)amino)ethoxy)ethoxy)ethoxy)propanoyl)piperidin-4-yl)amino)picolinamide] | 17 | 
6 | > 80 | O=C1CCC(N2C(=O)c3ccc(NCCOCCOCCOCCOCCC(=O)N4CCC(Nc5cccc(C(=O)Nc6cnn7ccc(N8CCC[C@@H]8c8cc(F)ccc8F)nc67)n5)CC4)cc3C2=O)C(=O)N1 (stereo partly drawn) [CPD-476, N-(5-((R)-2-(2,5-difluorophenyl)pyrrolidin-1-yl)pyrazolo[1,5-a]pyrimidin-3-yl)-6-((1-(1-((2-(2,6-dioxopiperidin-3-yl)-1,3-dioxoisoindolin-5-yl)amino)-3,6,9,12-tetraoxapentadecan-15-oyl)piperidin-4-yl)amino)picolinamide] | 22.4 | 
7 | 50 to 80 | O=C1CCC(N2C(=O)c3ccc(NCCOCCOCCOCCOCCOCCC(=O)N4CCC(Nc5cccc(C(=O)Nc6cnn7ccc(N8CCC[C@@H]8c8cc(F)ccc8F)nc67)n5)CC4)cc3C2=O)C(=O)N1 (stereo partly drawn) [CPD-477, N-(5-((R)-2-(2,5-difluorophenyl)pyrrolidin-1-yl)pyrazolo[1,5-a]pyrimidin-3-yl)-6-((1-(1-((2-(2,6-dioxopiperidin-3-yl)-1,3-dioxoisoindolin-5-yl)amino)-3,6,9,12,15-pentaoxaoctadecan-18-oyl)piperidin-4-yl)amino)picolinamide] | 51.7 | 

More lines, now with the values behind:

Row | SMILES | percent degradation of TPM3-TRKA protein at 0.01 µM (TPM3-TRKA fusion protein; [4]) [%] | IC50 (KM12 cells; [3]) [nM] | other results
8 | O=C1CCC(N2C(=O)c3cccc(NCCOCCOCCOCCC(=O)N4CCN(c5cccc(-c6cnc7ccc(N8CCC[C@@H]8c8cccc(F)c8)nn67)n5)CC4)c3C2=O)C(=O)N1 (stereo partly drawn) [CPD-010, 2-(2,6-Dioxopiperidin-3-yl)-4-((2-(2-(2-(3-(4-(6-(6-((R)-2˜ (3-fluorophenyl)pyrrolidin-1-yl)imidazo[1,2-b]pyridazin-3-yl)pyridin-2-yl)piperazin-1-yl)-3-oxopropoxy)ethoxy)ethoxy)ethyl)amino) isoindoline-1,3-dione] |  |  | viability of KM12 cells (KM12 cells; [1]): inhibited the viability of KM12 cells; percent degradation of TPM3-TRKA protein at 0.01 µM (TPM3-TRKA fusion protein; [2]): 50 to 80%
9 | O=C1CCC(N2C(=O)c3cccc(NCCCC(=O)N4CCN(c5ccc(C(=O)Nc6n[nH]c7ccc(Cc8cc(F)cc(F)c8)cc67)c(NC6CCOCC6)c5)CC4)c3C2=O)C(=O)N1 (stereo not drawn) [CPD-053, N-(5-(3,5-Difluorobenzyl)-1H-indazol-3-yl)-4-(4-(4-((2-(2,6-dioxopiperidin-3-yl)-1,3-dioxoisoindolin-4-yl)amino)butanoyl)piperazin-1-yl)-2-((tetrahydro-2H-pyran-4-yl)amino)benzamide] |  |  | viability of KM12 cells (KM12 cells; [1]): inhibited the viability of KM12 cells; viability of KM12 cells (KM12 cells; 1000 nM, 8-point 3-fold serial dilution, 3 days (FIG. 4B)): significantly inhibited the viability of KM12 cells; IC50 (KM12 cells; 72 h, KM12 cell viability, CellTiter-Glo, three days treatment, read-out: IC50): 1.5 nM; percent degradation of TPM3-TRKA protein at 0.01 µM (TPM3-TRKA fusion protein; [2]): > 80%; TPM3-TRKA protein levels (TPM3-TRKA fusion protein; KM12 cells, 100 nM, indicated incubation time, Western blot (FIG. 2)): rapidly reduced TPM3-TRKA protein levels
10 | O=C1CCC(N2C(=O)c3cccc(NCCOCCOCCOCCC(=O)N4CCN(c5ccc(C(=O)Nc6n[nH]c7ccc(Cc8cc(F)cc(F)c8)cc67)c(NC6CCOCC6)c5)CC4)c3C2=O)C(=O)N1 (stereo not drawn) [CPD-057, N—(S-(3,5-Difluorobenzyl)-1H-indazol-3-yl)-4-(4-(3-(2-(2-(2-((2-(2,6-dioxopiperidin-3-yl)-1,3-dioxoisoindolin-4-yl)amino)ethoxy)ethoxy)ethoxy)propanoyl)piperazin-1-yl)-2-((tetrahydro-2H-pyran-4-yl)amino)benzamide] |  |  | viability of KM12 cells (KM12 cells; [1]): inhibited the viability of KM12 cells; percent degradation of TPM3-TRKA protein at 0.01 µM (TPM3-TRKA fusion protein; [2]): > 80%
11 | O=C1CCC(N2C(=O)c3ccc(NCCCCCCCC(=O)N4CCC(Nc5cccc(C(=O)Nc6cnn7ccc(N8CCC[C@@H]8c8cc(F)ccc8F)nc67)n5)CC4)cc3C2=O)C(=O)N1 (stereo partly drawn) [CPD-472, N-(5-((R)-2-(2,5-difluorophenyl)pyrrolidin-1-yl)pyrazolo[1,5-a]pyrimidin-3-yl)-6-((1-(8-((2-(2,6-dioxopiperidin-3-yl)-1,3-dioxoisoindolin-5-yl)amino)octanoyl)piperidin-4-yl)amino)picolinamide] | > 80 | 37 | 
12 | NC(=O)C1CCN(c2cc(CN3CCN(C(=O)CNc4cccc5c4C(=O)N(C4CCC(=O)NC4=O)C5=O)CC3)ccc2NC(=O)c2coc(N3CCOCC3)n2)CC1 (stereo not drawn) [CPD-478, N-(2-(4-carbamoylpiperidin-1-yl)-4-((4-((2-(2,6-dioxopiperidin-3-yl)-1,3-dioxoisoindolin-4-yl)glycyl)piperazin-1-yl)methyl)phenyl)-2-morpholinooxazole-4-carboxamide] |  |  | IC50 (KM12 cells; KM12, 72 h): 28 nM; percent degradation of TPM3-TRKA protein at 0.01 µM (TPM3-TRKA fusion protein; KM12, 16 h): > 80%
